# Test results from US9433622B2, “Pyrimidine compounds useful in the treatment of diseases mediated by IKKE and/or TBK1 mechanisms” (DOMAINEX LIMITED, priority 2013, dated 2016).
# Like-named read-outs stand apart in the source and are kept apart here.
# Columns and labels:
# IKKε = IKKε (Homo sapiens (Human), UniProt Q14164); test: Lanthascreen TR-FRET kinase inhibition assay, IKKε; format: biochemical
# Experimental: (§1) Compounds of the invention (synthesised as described below) were tested for activity against the IKKε and TBK-1 enzyme as follows:
# (§2) Inhibitions studies were performed using a time-resolved fluorescence-based Lanthascreen™ assay. Phosphorylation of a fluorescein-labelled substrate peptide is measured using terbium-labeled phosphospecific antibodies.
# (§3) Kinase inhibition assays (10 μL) were performed at 20° C. in 384-well plate format. […] The final reaction conditions contained 400 nM fluorescein-IkBα substrate ([…]), 20 μM ATP, 2 nM or 8 nM IKKε or TBK1 kinase respectively, and 3% DMSO in kinase assay buffer consisting of 50 mM HEPES (pH 7.5), 10 mM MgCl, 1 mM EGTA, 0.01% Brij-35.
# (§4) Compound dilutions were prepared from 10 mM DMSO stocks by dilution into DMSO.
# (§5) The kinase phosphorylation assay was initiated by the addition of the kinase and the reaction was allowed to proceed for 1 h or 2.5 h for IKKε and TBK-1 kinase respectively.
# TBK1 = TBK1 (Homo sapiens (Human), UniProt Q9UHD2); test: Lanthascreen TR-FRET kinase inhibition assay, TBK1; format: biochemical; settings: 20 μM ATP (apparent Km), 8 nM kinase, 2.5 h
# TBK1, sequence (Q9UHD2 whole entry): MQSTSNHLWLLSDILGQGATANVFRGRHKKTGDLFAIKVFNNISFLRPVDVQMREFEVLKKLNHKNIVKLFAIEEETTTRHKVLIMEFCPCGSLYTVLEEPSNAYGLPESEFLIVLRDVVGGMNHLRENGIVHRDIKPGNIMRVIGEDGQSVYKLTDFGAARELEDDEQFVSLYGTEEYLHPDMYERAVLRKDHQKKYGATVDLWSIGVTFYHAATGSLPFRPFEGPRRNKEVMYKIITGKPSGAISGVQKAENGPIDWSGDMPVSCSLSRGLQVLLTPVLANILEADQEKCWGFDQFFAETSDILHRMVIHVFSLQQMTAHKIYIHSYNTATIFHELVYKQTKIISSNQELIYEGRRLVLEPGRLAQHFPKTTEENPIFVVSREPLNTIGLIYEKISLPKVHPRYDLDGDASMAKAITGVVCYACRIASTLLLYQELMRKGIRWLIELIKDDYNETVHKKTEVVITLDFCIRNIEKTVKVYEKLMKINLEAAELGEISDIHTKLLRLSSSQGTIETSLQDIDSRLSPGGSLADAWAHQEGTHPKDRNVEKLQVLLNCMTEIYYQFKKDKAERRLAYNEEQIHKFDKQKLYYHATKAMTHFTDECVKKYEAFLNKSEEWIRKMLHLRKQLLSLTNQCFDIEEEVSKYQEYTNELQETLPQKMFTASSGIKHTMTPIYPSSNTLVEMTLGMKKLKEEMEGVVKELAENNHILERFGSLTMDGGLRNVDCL
# Experimental: as §1, §2, §3, §4, §5
# [1] = 20 μM ATP (apparent Km), 2 nM kinase, 1 h
# IKKε, sequence (Q14164 whole entry): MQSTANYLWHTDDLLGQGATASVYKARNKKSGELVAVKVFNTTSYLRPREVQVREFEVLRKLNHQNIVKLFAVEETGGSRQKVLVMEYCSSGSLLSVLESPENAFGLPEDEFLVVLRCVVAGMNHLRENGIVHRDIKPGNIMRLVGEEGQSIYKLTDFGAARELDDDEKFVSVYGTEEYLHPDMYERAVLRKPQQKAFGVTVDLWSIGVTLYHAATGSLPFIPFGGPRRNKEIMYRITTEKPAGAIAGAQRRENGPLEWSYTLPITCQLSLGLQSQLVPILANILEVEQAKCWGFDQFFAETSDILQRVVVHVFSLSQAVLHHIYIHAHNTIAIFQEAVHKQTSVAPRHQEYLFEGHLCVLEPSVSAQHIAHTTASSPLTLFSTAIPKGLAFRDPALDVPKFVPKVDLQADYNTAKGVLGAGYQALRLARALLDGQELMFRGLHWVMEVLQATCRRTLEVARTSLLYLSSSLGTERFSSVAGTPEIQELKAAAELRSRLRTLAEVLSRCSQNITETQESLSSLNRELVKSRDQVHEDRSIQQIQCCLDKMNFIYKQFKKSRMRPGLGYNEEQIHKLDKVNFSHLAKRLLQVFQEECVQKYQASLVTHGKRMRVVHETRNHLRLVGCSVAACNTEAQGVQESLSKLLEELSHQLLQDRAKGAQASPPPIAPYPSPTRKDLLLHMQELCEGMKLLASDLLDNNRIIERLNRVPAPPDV
IC50 (IKKε; [1]),IC50 (TBK1),IC50 (IKKε),Compound
< 15 nM,< 15 nM,–,"N#Cc1cc(-c2ccnc(Nc3ccc(CN4CCOCC4)cc3)n2)cnc1N1CC[C@H](F)C1 [DMX-30, 2-((S)-3-Fluoro-pyrrolidin-1-yl)-5-[2-(4-morpholin-4-ylmethyl-phenylamino)-pyrimidin-4-yl]-nicotinonitrile]"
< 100 nM,< 30 nM,–,"N#Cc1cc(-c2ccnc(Nc3ccc(NC(=O)CN4CCNCC4)nc3)n2)cnc1N1CC[C@H](F)C1 [DMX-31, N-(5-{4-[5-Cyano-6-((S)-3-fluoro-pyrrolidin-1-yl)-pyridin-3-yl]-pyrimidin-2-ylamino}-pyridin-2-yl)-2-piperazin-1-yl-acetamide]"
< 30 nM,< 30 nM,–,"CC(C(=O)Nc1ccc(Nc2nccc(-c3cnc(N4CC[C@H](F)C4)c(C#N)c3)n2)cn1)N1CCOCC1 (stereo partly drawn) [DMX-32, N-(5-{4-[5-Cyano-6-((S)-3-fluoro-pyrrolidin-1-yl)-pyridin-3-yl]-pyrimidin-2-ylamino}-pyridin-2-yl)-2-morpholin-4-yl-propionamide]"
< 15 nM,< 15 nM,–,"N#Cc1cc(-c2ccnc(Nc3cnn(C4CCOCC4)c3)n2)cnc1N1CC[C@H](F)C1 [DMX-33, 2-((S)-3-Fluoro-pyrrolidin-1-yl)-5-{2-[1-(tetrahydro-pyran-4-yl)-1H-pyrazol-4-ylamino]-pyrimidin-4-yl}-nicotinonitrile]"
< 30 nM,< 30 nM,–,"N#Cc1cc(-c2ccnc(Nc3ccnc(NC(=O)CN4CCOCC4)c3)n2)cnc1N1CC[C@H](F)C1 [DMX-34, N-(4-{4-[5-Cyano-6-((S)-3-fluoro-pyrrolidin-1-yl)-pyridin-3-yl]-pyrimidin-2-ylamino}-pyridin-2-yl)-2-morpholin-4-yl-acetamide]"
–,< 100 nM,< 30 nM,"N#Cc1cc(-c2ccnc(Nc3ccc(NC(=O)CN4CC[C@H](O)C4)nc3)n2)cnc1N1CC[C@H](F)C1 [DMX-35, N-(5-{4-[5-Cyano-6-((S)-3-fluoro-pyrrolidin-1-yl)-pyridin-3-yl]-pyrimidin-2-ylamino}-pyridin-2-yl)-2-((S)-3-hydroxy-pyrrolidin-1-yl)-acetamide]"
< 30 nM,< 30 nM,–,"N#Cc1cc(-c2ccnc(Nc3cnn(CCO)c3)n2)cnc1N1CCCC1 [DMX-36, 5-{2-[1-(2-Hydroxy-ethyl)-1H-pyrazol-4-ylamino]-pyrimidin-4-yl}-2-pyrrolidin-1-yl-nicotinonitrile]"
< 15 nM,< 15 nM,–,"N#Cc1cc(-c2ccnc(Nc3ccc(C(N)=O)cc3)n2)cnc1N1CCCC1 [DMX-37, 4-[4-(5-Cyano-6-pyrrolidin-1-yl-pyridin-3-yl)-pyrimidin-2-ylamino]-benzamide]"
< 100 nM,< 15 nM,–,"N#Cc1cc(-c2ccnc(Nc3cnn(C[C@H](O)CO)c3)n2)cnc1N1CCCC1 [DMX-38, 5-{2-[1-((S)-2,3-Dihydroxy-propyl)-1H-pyrazol-4-ylamino]-pyrimidin-4-yl}-2-pyrrolidin-1-yl-nicotinonitrile]"
< 30 nM,< 15 nM,–,"N#Cc1cc(-c2ccnc(Nc3cnn(C[C@@H](O)CO)c3)n2)cnc1N1CCCC1 [DMX-39, 5-{2-[1-((R)-2,3-Dihydroxy-propyl)-1H-pyrazol-4-ylamino]-pyrimidin-4-yl}-2-pyrrolidin-1-yl-nicotinonitrile]"
< 9000 nM,< 1000 nM,–,"Cn1cc(Nc2nccc(-c3cnc(N4CCC[C@@H]4C(=O)O)c(C#N)c3)n2)cn1 [DMX-40, (R)-1-{3-Cyano-5-[2-(1-methyl-1H-pyrazol-4-ylamino)-pyrimidin-4-yl]-pyridin-2-yl}-pyrrolidine-2-carboxylic acid]"
< 1000 nM,< 100 nM,–,"Cn1cc(NC(=O)[C@H]2CCCN2c2ncc(-c3ccnc(Nc4cnn(C)c4)n3)cc2C#N)cn1 [DMX-41, (R)-1-{3-Cyano-5-[2-(1-methyl-1H-pyrazol-4-ylamino)-pyrimidin-4-yl]-pyridin-2-yl}-pyrrolidine-2-carboxylic acid (1-methyl-1H-pyrazol-4-yl)-amide]"
